From patent US10703755B2, “Substituted purine derivative” (SUMITOMO DAINIPPON PHARMA CO., LTD., priority 2016, dated 2020)

Target: human TLR7 (Homo sapiens (Human), UniProt Q9NYK1)
Test: Test for evaluating the inhibition of the activation of human TLR7 (SEAP reporter, TLR7/NF-κB/SEAPorter HEK293 cell)
Format: cell-based
Conditions: R-848 200 nmol/L; for IC50: SEAP reporter; for inhibitory effect against TLR7 in the test for evaluating inhibition of the activation of TLR7: SEAP activity, result in words
Experimental: As human TLR7 expressing cell line, HEK293 cell line was bought from IMGENEX Corporation (TLR7/NF-ηB/SEAPorter™ HEK293 cell), which is human embryonic kidney cell line and stably expresses full-length human TLR7 gene and secreted alkaline phosphatase (SEAP) reporter gene under the transcriptional control of an NE-ηB response element. The TLR7/NF-ηB/SEAPorter™ HEK293 cell was cultivated with DMEM containing 10% fetal bovine serum (FBS) and 10 μg/mL blasticidin S at 37° C. in the presence of 5% CO2. The TLR7/NF-ηB/SEAPorter™ HEK293 cell was seeded into 96-well microtiter plate at 5×10^4 cell/90 μL/well, and the place was cultivated at 37° C. in a CO2 incubator overnight.
Each compound prepared in the Examples was evaluated by Test 1.

Sequence of human TLR7 (Q9NYK1 27-1049): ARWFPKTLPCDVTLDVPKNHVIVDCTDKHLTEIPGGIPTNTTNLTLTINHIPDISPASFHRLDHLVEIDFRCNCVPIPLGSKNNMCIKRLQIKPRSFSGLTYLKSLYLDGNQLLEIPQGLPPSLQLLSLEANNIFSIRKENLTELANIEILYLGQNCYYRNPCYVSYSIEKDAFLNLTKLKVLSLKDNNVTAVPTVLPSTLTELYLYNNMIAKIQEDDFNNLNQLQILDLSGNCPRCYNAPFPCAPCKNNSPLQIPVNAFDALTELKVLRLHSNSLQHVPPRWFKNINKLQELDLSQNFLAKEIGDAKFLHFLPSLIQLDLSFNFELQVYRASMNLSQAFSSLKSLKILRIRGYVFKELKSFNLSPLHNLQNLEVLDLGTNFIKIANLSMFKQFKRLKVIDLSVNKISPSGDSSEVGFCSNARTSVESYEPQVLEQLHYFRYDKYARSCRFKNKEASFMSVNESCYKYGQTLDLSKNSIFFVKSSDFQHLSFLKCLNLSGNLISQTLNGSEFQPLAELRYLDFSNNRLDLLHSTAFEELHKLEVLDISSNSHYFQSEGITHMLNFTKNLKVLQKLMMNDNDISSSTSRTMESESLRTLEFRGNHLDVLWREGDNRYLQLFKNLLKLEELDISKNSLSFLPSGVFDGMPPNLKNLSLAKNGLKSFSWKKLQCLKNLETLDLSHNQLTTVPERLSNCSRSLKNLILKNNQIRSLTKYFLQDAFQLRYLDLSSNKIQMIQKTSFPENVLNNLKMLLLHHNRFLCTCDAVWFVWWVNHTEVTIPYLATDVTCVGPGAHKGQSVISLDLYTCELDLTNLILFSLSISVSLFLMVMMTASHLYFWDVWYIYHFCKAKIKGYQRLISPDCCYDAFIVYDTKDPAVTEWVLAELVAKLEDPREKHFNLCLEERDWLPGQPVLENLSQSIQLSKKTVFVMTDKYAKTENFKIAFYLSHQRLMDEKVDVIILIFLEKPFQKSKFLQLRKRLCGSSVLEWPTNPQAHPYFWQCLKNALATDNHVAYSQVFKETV

SMILES | IC50 | inhibitory effect against TLR7 in the test for evaluating inhibition of the activation of TLR7
COCCOc1nc(C)c2nc(-c3cncc(F)c3)n(Cc3ccc(CN4CCOCC4)cc3)c2n1 [Example 114] | 300 nM | –
CCOc1nc(C)c2nc(-c3cncc(F)c3)n(Cc3cnn(CCCN4CCCC4)c3)c2n1 [Example 247] | 85 nM | –
CCCCOc1nc(N)c2nc(-c3cccc(Cl)c3)n(Cc3ccccc3)c2n1 [Example 13] | 9300 nM | –
CCOc1nc(C)c2nc(-c3cncc(F)c3)n(Cc3ccc(C4CN5CCC4CC5)nc3OC)c2n1 (centres unmarked) [Example 327] | 23 nM | potent inhibitory effect against TLR7
COc1nc(C)c2nc(-c3cncc(F)c3)n(Cc3ccc(OCCCN(C)C)cc3F)c2n1 [Example 421] | 73 nM | potent inhibitory effect against TLR7
COCCOc1nc(N)c2nc(-c3cncc(C#N)c3)n(Cc3ccc(CN(C)C)cc3)c2n1 [Example 31] | 7700 nM | –
CCCOc1nc(N)c2nc(-c3cncc(F)c3)n(Cc3ccc(CN(C)C)cc3)c2n1 [Example 162] | 210 nM | –
CCOc1nc(C)c2nc(-c3cncc(F)c3)n(Cc3ccc(C4=CN5CCC4CC5)cc3OC)c2n1 [Example 354] | 36 nM | –
COCCOc1nc(N)c2nc(-c3cncc(F)c3)n(Cc3ccccc3)c2n1 [Example 25] | 3500 nM | –
CCCN1C[C@@H]2C[C@H]1CN2Cc1ccc(Cn2c(-c3cncc(F)c3)nc3c(C)nc(OC)nc32)cc1 [Example 133, 8-(5-fluoropyridin-3-yl)-2-methoxy-6-methyl-9-(4-{[(1S,4S)-5-propyl-2,5-diazabicyclo[2.2.1]hept-2-yl]methyl}benzyl)-9H-purine] | 13 nM | potent inhibitory effect against TLR7
CN(C)Cc1ccc(Cn2c(-c3cncc(F)c3)nc3c(N)nc(N4CCC4)nc32)cc1 [Example 153] | 5800 nM | –
COc1nc(C)c2nc(-c3cncc(F)c3)n(Cc3ccc(C4CN5CCC4CC5)cc3F)c2n1 (centres unmarked) [Example 314] | 8 nM | potent inhibitory effect against TLR7
CCOc1nc(C)c2nc(-c3cncc(F)c3)n(Cc3ncc(C4=CN5CCC4CC5)cc3F)c2n1 [Example 359] | 855 nM | –
COc1nc(C)c2nc(-c3cnccc3C)n(Cc3ccc(C4CN5CCC4CC5)cc3F)c2n1 (centres unmarked) [Example 304, 9-[4-(1-azabicyclo[2.2.2]oct-3-yl)-2-fluorobenzyl]-2-methoxy-6-methyl-8-(4-methylpyridin-3-yl)-9H-purine] | 4 nM | potent inhibitory effect against TLR7
CCOc1nc(C)c2nc(-c3cncc(F)c3)n(Cc3ccc(CN4CCCC4)cc3)c2n1 [Example 263] | 102 nM | –
CCOc1nc(C)c2nc(-c3cncc(F)c3)n(Cc3cnn(CCN4CCOCC4)c3)c2n1 [Example 248] | 248 nM | –
CCOc1nc(C)c2nc(-c3cncc(F)c3)n(Cc3cnn(CC4CCN(C)C4)c3)c2n1 (centres unmarked) [Example 279] | 40 nM | potent inhibitory effect against TLR7
CCOc1nc(N)c2nc(-c3cncc(F)c3)n(Cc3ccc(CO)cc3)c2n1 [Example 77, (4-{[6-Amino-2-ethoxy-8-(5-fluoropyridin-3-yl)-9H-purin-9-yl]methyl}phenyl)methanol] | 2400 nM | –
CCOc1nc(C)c2nc(-c3cncc(F)c3)n(Cc3cnc(C4CN5CCC4CC5)cc3OC)c2n1 (centres unmarked) [Example 374] | 1630 nM | –
CCCCOc1nc(N)c2nc(-c3cncc(F)c3)n(Cc3cccc(C(=O)N4CCN(C)CC4)c3)c2n1 [Example 147] | 3500 nM | –
COc1nc(C)c2nc(-c3cncc(C#N)c3)n(Cc3ccc(O[C@@H]4CN5CCC4CC5)cc3F)c2n1 [Example 322, 5-(9-{4-[(3S)-1-azabicyclo[2.2.2]oct-3-yloxy]-2-fluorobenzyl}-2-methoxy-6-methyl-9H-purin-8-yl)pyridine-3-carbonitrile] | 13 nM | potent inhibitory effect against TLR7
COc1nc(C)c2nc(-c3cncc(F)c3)n(Cc3ccc(O[C@@H]4C[C@H]5CC[C@@H](C4)N5C)cc3F)c2n1 [Example 418, 9-(2-fluoro-4-{[(3-exo)-8-methyl-8-azabicyclo[3.2.1]oct-3-yl]oxy}benzyl)-8-(5-fluoropyridin-3-yl)-2-methoxy-6-methyl-9H-purine] | 19 nM | potent inhibitory effect against TLR7
CCOc1nc(C)c2nc(-c3cncc(F)c3)n(Cc3ccc(CN4C[C@@H]5C[C@H]4CN5C)cc3F)c2n1 [Example 313, 2-ethoxy-9-(2-fluoro-4-{[(1S,4S)-5-methyl-2,5-diazabicyclo[2.2.1]hept-2-yl]methyl}benzyl)-8-(5-fluoropyridin-3-yl)-6-methyl-9H-purine] | 8 nM | potent inhibitory effect against TLR7
COCCOc1nc(N)c2nc(-c3cncc(F)c3)n(Cc3cccc(CN(C)C)c3)c2n1 [Example 89] | 1400 nM | –

SMILES | IC50 | inhibitory effect against TLR7 in the test for evaluating inhibition of the activation of TLR7
CCOc1nc(N)c2nc(-c3cncc(F)c3)n(Cc3ccc(CN4[C@@H]5CC[C@H]4CN(C)C5)cc3)c2n1 [Example 95] | 50 nM | potent inhibitory effect against TLR7
CCCCOc1nc(N)c2nc(-c3cncc(COC)c3)n(Cc3ccccc3)c2n1 [Example 29] | 1000 nM | –
CCOc1nc(N)c2nc(-c3cncc(F)c3)n(Cc3ccc(OCCN4CCCC4)cc3)c2n1 [Example 47, 2-Ethoxy-8-(5-fluoropyridin-3-yl)-9-{4-[2-(pyrrolidin-1-yl)ethoxy]benzyl}-9H-purine-6-amine] | 30 nM | potent inhibitory effect against TLR7
CCOc1nc(N)c2nc(-c3cncc(F)c3)n(Cc3ccc(C(=O)N4CCC(C)CC4)cc3)c2n1 [Example 144] | 2600 nM | –
COc1nc(C)c2nc(-c3cncc(F)c3)n(Cc3ccc(C4CCN(C(=O)OC(C)(C)C)CC4)cc3F)c2n1 [Example 385] | 94 nM | –
CCOc1nc(N)c2nc(-c3cncc(F)c3)n(Cc3ccc(CN(C)CC(F)F)cc3)c2n1 [Example 102] | 810 nM | –
COc1nc(C)c2nc(-c3cccc(C#N)c3)n(Cc3ccc(C4CN5CCC4CC5)cc3F)c2n1 (centres unmarked) [Example 344, 3-{9-[4-(1-azabicyclo[2.2.2]oct-3-yl)-2-fluorobenzyl]-2-methoxy-6-methyl-9H-purin-8-yl}benzonitrile] | 12 nM | potent inhibitory effect against TLR7
CCOc1nc(C)c2nc(-c3cncc(F)c3)n(Cc3cnn(CCCN4CCOCC4)c3)c2n1 [Example 249] | 100 nM | –
COc1nc(C)c2nc(-c3cncc(F)c3)n(Cc3ccc(OCC4CNC4)cc3F)c2n1 [Example 434] | 90 nM | –
Cc1nc(N)c2nc(-c3cncc(F)c3)n(Cc3ccc(CN(C)C)cc3)c2n1 [Example 156, 9-{4-[(Dimethylamino)methyl]benzyl}-8-(5-fluoropyridin-3-yl)-2-methyl-9H-purine-6-amine] | 5000 nM | –
CCOc1nc(C)c2nc(-c3cncc(F)c3)n(Cc3cnn(CCCN(C)C)c3)c2n1 [Example 245] | 198 nM | –
CCOc1nc(C)c2nc(-c3cncc(F)c3)n(Cc3cnn(CC4COCCN4)c3)c2n1 (centres unmarked) [Example 427] | 28 nM | –
CCOc1nc(N)c2nc(-c3cncc(F)c3)n(Cc3cccc(C#N)c3)c2n1 [Example 237] | 2020 nM | –
CCOc1nc(N)c2nc(-c3cncc(F)c3)n(Cc3ccc([C@@H]4CN5CCC4CC5)cc3)c2n1 [Example 175, 9-{4-[(3R)-1-Azabicyclo[2.2.2]oct-3-yl]benzyl}-2-ethoxy-8-(5-fluoropyridin-3-yl)-9H-purine-6-amine] | 94 nM | –
COc1nc(C)c2nc(-c3cnc(C)nc3)n(Cc3ccc(OC4CN5CCC4CC5)cc3F)c2n1 (centres unmarked) [Example 329] | 120 nM | –
CCOc1nc(C)c2nc(-c3cncc(F)c3)n(Cc3cnn(CC4CCNC4)c3)c2n1 (centres unmarked) [Example 270] | 272 nM | –
COc1nc(C)c2nc(-c3cncc(F)c3)n(Cc3ccc(O[C@H]4C[C@H]5CC[C@@H](C4)N5C)cc3F)c2n1 [Example 285, 9-(2-fluoro-4-{[(3-endo)-8-methyl-8-azabicyclo[3.2.1]oct-3-yl]oxy}benzyl)-8-(5-fluoropyridin-3-yl)-2-methoxy-6-methyl-9H-purine] | 2 nM | potent inhibitory effect against TLR7
COc1nc(C)c2nc(-c3cncc(F)c3)n(Cc3ccc(OC4CN(C)C4)cc3F)c2n1 [Example 416, 9-{2-fluoro-4-[(1-methylazetidin-3-yl)oxy]benzyl}-8-(5-fluoropyridin-3-yl)-2-methoxy-6-methyl-9H-purine] | 50 nM | potent inhibitory effect against TLR7
COc1nc(C)c2nc(-c3ccc(C(N)=O)nc3)n(Cc3ccc(OC4CN5CCC4CC5)cc3F)c2n1 (centres unmarked) [Example 439] | 134 nM | –
CCOc1nc(C)c2nc(-c3cncc(F)c3)n(Cc3ccc(C4CN5CCC4CC5)cc3C#N)c2n1 (centres unmarked) [Example 384] | 270 nM | –
CCOc1nc(C)c2nc(-c3cncc(F)c3)n(Cc3ccc(C4CN5CCC4CC5)nc3C(F)(F)F)c2n1 (centres unmarked) [Example 381] | 1390 nM | –
COc1nc(C)c2nc(-c3cnc(C)nc3)n(Cc3ccc(C4CN5CCC4CC5)cc3F)c2n1 (centres unmarked) [Example 348] | 92 nM | potent inhibitory effect against TLR7
CCOc1nc(N)c2nc(-c3cncc(F)c3)n(Cc3ccc(OCCN(C)C)cn3)c2n1 [Example 56] | 660 nM | –
